Experimental data from ChEMBL document CHEMBL2429807, “Synthesis and cytotoxicity of novel 4-(4-(substituted)-1H-1,2,3-triazol-1-yl)-N-phenethylbenzenesulfonamides” (Med Chem Res, 2013).

Legend:
Assay type in all cases: functional, cell-based
[1] = Cytotoxicity against human HuCCa1 cells after 48 hrs by MTT assay; conditions: HuCC-A1, 48 h
HepG2 = test: Cytotoxicity against human HepG2 cells after 48 hrs by MTT assay; conditions: HepG2, 48 h
A549 = test: Cytotoxicity against human A549 cells after 48 hrs by MTT assay; conditions: A549, 48 h
MOLT-3 = test: Cytotoxicity against human MOLT3 cells after 48 hrs by XTT assay; conditions: MOLT-3, 48 h

COc1ccc(CCNS(=O)(=O)c2ccc(-n3cc(COc4ccc(C=O)cc4)nn3)cc2)cc1OC
IC50 [1]: > 50 µg/mL
IC50 (HepG2): > 50 µg/mL
IC50 (A549): 28 µM
IC50 (MOLT-3): 17.4 µM

O=S(=O)(NCCc1ccccc1)c1ccc(-n2cc(COc3ccccc3)nn2)cc1
IC50 [1]: > 50 µg/mL
IC50 (HepG2): 57.5 µM
IC50 (A549): > 50 µg/mL
IC50 (MOLT-3): > 50 µg/mL

Cc1ccc(OCc2cn(-c3ccc(S(=O)(=O)NCCc4ccccc4)cc3)nn2)cc1
IC50 [1]: > 50 µg/mL
IC50 (HepG2): 81.8 µM
IC50 (A549): > 50 µg/mL
IC50 (MOLT-3): > 50 µg/mL

Nc1ccc(S(=O)(=O)NCCc2ccccc2)cc1
IC50 [1]: > 50 µg/mL
IC50 (HepG2): > 50 µg/mL
IC50 (A549): > 50 µg/mL
IC50 (MOLT-3): 167 µM

O=S(=O)(NCCc1ccccc1)c1ccc(-n2cc(COc3ccc4ccccc4c3)nn2)cc1
IC50 [1]: > 50 µg/mL
IC50 (HepG2): 28.2 µM
IC50 (A549): > 50 µg/mL
IC50 (MOLT-3): 74.2 µM

[N-]=[N+]=Nc1ccc(S(=O)(=O)NCCc2ccccc2)cc1
IC50 [1]: > 50 µg/mL
IC50 (HepG2): 92.6 µM
IC50 (A549): 139 µM
IC50 (MOLT-3): 60.1 µM

COc1ccc(CCNS(=O)(=O)c2ccc(-n3cc(COc4ccc([N+](=O)[O-])cc4)nn3)cc2)cc1OC
IC50 [1]: > 50 µg/mL
IC50 (HepG2): > 50 µg/mL
IC50 (A549): > 50 µg/mL
IC50 (MOLT-3): 10.1 µM

COc1cc([C@@H]2c3cc4c(cc3[C@@H](O[C@@H]3O[C@@H]5CO[C@@H](C)O[C@H]5[C@H](O)[C@H]3O)[C@H]3COC(=O)[C@H]23)OCO4)cc(OC)c1O [ETOPOSIDE]
IC50 (HepG2): 30.2 µM
IC50 (MOLT-3): 0.051 µM

COc1cccc2c1C(=O)c1c(O)c3c(c(O)c1C2=O)C[C@@](O)(C(=O)CO)C[C@@H]3O[C@H]1C[C@H](N)[C@H](O)[C@H](C)O1 [DOXORUBICIN]
IC50 [1]: 0.83 µM
IC50 (HepG2): 0.79 µM
IC50 (A549): 0.44 µM

O=[N+]([O-])c1ccc(OCc2cn(-c3ccc(S(=O)(=O)NCCc4ccccc4)cc3)nn2)cc1
IC50 [1]: > 50 µg/mL
IC50 (HepG2): > 50 µg/mL
IC50 (A549): > 50 µg/mL
IC50 (MOLT-3): 61.4 µM

O=S(=O)(NCCc1ccccc1)c1ccc(-n2cc(-c3ccccc3)nn2)cc1
IC50 [1]: 8.65 µM
IC50 (HepG2): 9.07 µM
IC50 (A549): 34.5 µM
IC50 (MOLT-3): > 50 µg/mL

COc1ccc(CCNS(=O)(=O)c2ccc(N)cc2)cc1OC
IC50 [1]: > 50 µg/mL
IC50 (HepG2): > 50 µg/mL
IC50 (A549): > 50 µg/mL
IC50 (MOLT-3): 104 µM

COC(=O)c1ccccc1OCc1cn(-c2ccc(S(=O)(=O)NCCc3ccccc3)cc2)nn1
IC50 [1]: > 50 µg/mL
IC50 (HepG2): 49.4 µM
IC50 (A549): > 50 µg/mL
IC50 (MOLT-3): 8.81 µM

O=S(=O)(NCCc1ccccc1)c1ccc(-n2cc(COc3cccc4ccccc34)nn2)cc1
IC50 [1]: > 50 µg/mL
IC50 (HepG2): > 50 µg/mL
IC50 (A549): > 50 µg/mL
IC50 (MOLT-3): > 50 µg/mL

COc1ccc(C=O)cc1OCc1cn(-c2ccc(S(=O)(=O)NCCc3ccccc3)cc2)nn1
IC50 [1]: > 50 µg/mL
IC50 (HepG2): 34.5 µM
IC50 (A549): 39 µM
IC50 (MOLT-3): 10.3 µM

COc1ccc(CCNS(=O)(=O)c2ccc(-n3cc(-c4ccccc4)nn3)cc2)cc1OC
IC50 [1]: > 50 µg/mL
IC50 (HepG2): 23.9 µM
IC50 (A549): 18.2 µM
IC50 (MOLT-3): 61 µM

Cc1ccccc1OCc1cn(-c2ccc(S(=O)(=O)NCCc3ccccc3)cc2)nn1
IC50 [1]: > 50 µg/mL
IC50 (HepG2): 41.6 µM
IC50 (A549): > 50 µg/mL
IC50 (MOLT-3): 34.2 µM

COc1ccc(CCNS(=O)(=O)c2ccc(N=[N+]=[N-])cc2)cc1OC
IC50 [1]: > 50 µg/mL
IC50 (HepG2): 122 µM
IC50 (A549): > 50 µg/mL
IC50 (MOLT-3): 48.5 µM

O=c1ccc2ccc(OCc3cn(-c4ccc(S(=O)(=O)NCCc5ccccc5)cc4)nn3)cc2o1
IC50 [1]: 16.1 µM
IC50 (HepG2): 12.4 µM
IC50 (A549): 19.6 µM
IC50 (MOLT-3): 89 µM

O=c1cc(OCc2cn(-c3ccc(S(=O)(=O)NCCc4ccccc4)cc3)nn2)c2ccccc2o1
IC50 [1]: > 50 µg/mL
IC50 (HepG2): > 50 µg/mL
IC50 (A549): > 50 µg/mL
IC50 (MOLT-3): 10.7 µM

COc1cc(C=O)ccc1OCc1cn(-c2ccc(S(=O)(=O)NCCc3ccccc3)cc2)nn1
IC50 [1]: > 50 µg/mL
IC50 (HepG2): 57.5 µM
IC50 (A549): 79.2 µM
IC50 (MOLT-3): 9.22 µM

O=Cc1ccc(OCc2cn(-c3ccc(S(=O)(=O)NCCc4ccccc4)cc3)nn2)cc1
IC50 [1]: 87.9 µM
IC50 (HepG2): 101 µM
IC50 (A549): > 50 µg/mL
IC50 (MOLT-3): 32 µM
